40 molecules from patent US20230157996A1, “SMALL-MOLECULE INHIBITOR TARGETING EB VIRUS NUCLEAR ANTIGEN PROTEIN, PREPARATION METHOD AND USE THEREOF” (priority 2020, published 2023) can be followed below.

This assay concerns C666-1 cells. As to the kind of experiment: C666-1 cell viability single concentration (50 μM) inhibition rate (Resazurin). The class given is cell-based. Conditions: Homo sapiens, C6661, 72 h, 50 μM compound, 72 hours, C666-1 cells; read-out: C666-1 cell viability single concentration (50 μM) inhibition rate, Ratio* (Inh %). The method, then:
In order to assess the effect of the EBNA1 inhibitor at the cellular level, the cell proliferation inhibition rate was tested, and the inhibition rate of inhibitor at a specific concentration on the proliferation of Epstein-Barr virus positive cell line C666-1 was detected.
In the test, 100 μL C666-1 cells were inoculated in a transparent 96-well plate, and each well contained 5×10^3 cells. After the cells were cultured in an incubator with 5% carbon dioxide at 37° C. for 24 hours, 10 μL compound at a concentration of 500 μmol/L was added into the cells, so that the final concentration of the compound was 50 μmol/L. Two replicate wells were set for each compound, the wells treated with DMSO were set as control wells (Ctrl), and the wells with cell culture medium only were set as blank wells (blank), and they were treated in the incubator with carbon dioxide at 37° C. for 72 hours. The cell viability was assessed using a redox indicator Resazurin. Specifically, 10 μL Resazurin at a concentration of 600 umol/L was added into each well, and incubated at 37° C. for 3 hours, and a Tecan microplate reader was used to detect the fluorescence signal at an excitation wavelength of 560 nm and an emission wavelength of 590 nm. The formula inh %=1−(F−Fblank)/(FCtrl−Fblank)×100% (where, F is the fluorescence intensity of the compound-added wells, FCtrl and Fblank are the readings of the control wells and blank wells, respectively) was used to calculate the inhibition rate of the compound on the proliferation of C666-1 cells, so as to assess the activity of the compound on Epstein-Barr virus positive cells.
As to `O=C(O)c1cccc(N2CC(Oc3ccc(CO)cc3)C2)c1` [Compound 35, 3-(3-(4-(hydroxymethyl)phenoxy)azetidin-1-yl)benzoic acid], the inhibition at 50 µM lay within 10 to 30%.

For the molecule `Nc1c(C(=O)O)cccc1N1CC(Oc2ccc(CO)cc2)C1` [Compound 36, 2-amino-3-(3-(4-(hydroxymethyl)phenoxy)azetidin-1-yl)benzoic acid], the inhibition at 50 µM was below 10%. In the case of `COC(=O)c1cccc(N2CC(Oc3ccc(CO)cc3)C2)c1-n1cccc1` [Compound 37, Methyl 3-(3-(4-(hydroxymethyl)phenoxy)azetidin-1-yl)-2-(1H-pyrrol-1-yl)benzoate] it was 30 to 50%. In the case of `O=C(O)c1cccc(N2CC(Oc3ccc(CO)cc3)C2)c1-n1cccc1` [Compound 38, 3-(3-(4-(hydroxymethyl)phenoxy)azetidin-1-yl)-2-(1H-pyrrol-1-yl)benzoic acid] it was below 10%.

In the case of `COC(=O)c1cccc(N2CC(Oc3ccc(CO)cc3)C2)c1-c1ccc2cc[nH]c2c1` [Compound 39, Methyl 3-(3-(4-(hydroxymethyl)phenoxy)azetidin-1-yl)-2-(1H-indol-6-yl)benzoate], the inhibition at 50 µM was in the range of 30 to 50%. In the case of `O=C(O)c1cccc(N2CC(Oc3ccc(CO)cc3)C2)c1-c1ccc2cc[nH]c2c1` [Compound 40, 3-(3-(4-(hydroxymethyl)phenoxy)azetidin-1-yl)-2-(1H-indol-6-yl)benzoic acid] it was below 10%. In the case of `COC(=O)c1cccc(N2CC(Oc3ccc(CO)cc3)C2)c1-c1ccccc1` [Compound 41, Methyl 6-(3-(4-(hydroxymethyl)phenoxy)azetidin-1-yl)-[1,1′-biphenyl]-2-formate] it was 10 to 30%.

Regarding `O=C(O)c1cccc(N2CC(Oc3ccc(CO)cc3)C2)c1-c1ccccc1` [Compound 42], the inhibition at 50 µM was below 10%. The figure for `COC(=O)c1cccc(N2CC(Oc3ccc(CO)cc3)C2)c1-c1ccc2ccsc2c1` [Compound 43, Methyl 2-(benzo[b]thiophen-6-yl)-3-(3-(4-(hydroxymethyl)phenoxy)azetidin-1-yl)benzoate] is 10 to 30%.

As to `O=C(O)c1cccc(N2CC(Oc3ccc(CO)cc3)C2)c1-c1ccc2ccsc2c1` [Compound 44, 2-(benzo[b]thiophen-6-yl)-3-(3-(4-(hydroxymethyl)phenoxy)azetidin-1-yl)benzoic acid], the inhibition at 50 µM is below 10%.

Take `COC(=O)c1cccc(N2CC(Oc3ccc(CO)cc3)C2)c1-c1ccc2nsnc2c1` [Compound 45, Methyl 2-(benzo[c][1,2,5]thiadiazol-5-yl)-3-(3-(4-(hydroxymethyl)phenoxy)azetidin-1-yl)benzoate]: the inhibition at 50 µM fell in the range of 10 to 30%. The figure for `O=C(O)c1cccc(N2CC(Oc3ccc(CO)cc3)C2)c1-c1ccc2nsnc2c1` [Compound 46] is below 10%; for `COC(=O)c1cccc(N2CC(Oc3ccc(CO)cc3)C2)c1-c1ccco1` [Compound 47] it is 30 to 50%.

On to `COC(=O)c1cccc(N2CC(Oc3ccc(CO)cc3)C2)c1-c1ccoc1` [Compound 48], for which the inhibition at 50 µM was above 50%. In the case of `O=C(O)c1cccc(N2CC(Oc3ccc(CO)cc3)C2)c1-c1ccoc1` [Compound 49] it was below 10%. The figure for `COC(=O)c1cccc(N2CC(Oc3ccc(CO)cc3)C2)c1-c1cccc(F)c1` [Compound 50] is 10 to 30%; for `O=C(O)c1cccc(N2CC(Oc3ccc(CO)cc3)C2)c1-c1cccc(F)c1` [Compound 51] it is below 10%; for `O=C(O)c1cccc(N2CC(Oc3ccc(CO)cc3)C2)c1-c1ccc2ccoc2c1` [Compound 52] it is below 10%. The figure for `COC(=O)c1cccc(N2CC(Oc3ccc(CO)cc3)C2)c1-c1cccc(Cl)c1` [Compound 53, Methyl 3′-chloro-6-(3-(4-(hydroxymethyl)phenoxy)azetidin-1-yl)-[1,1′-biphenyl]-2-formate] is 10 to 30%; for `O=C(O)c1cccc(N2CC(Oc3ccc(CO)cc3)C2)c1-c1cccc(Cl)c1` [Compound 54] it is 30 to 50%.

For the molecule `COC(=O)c1cccc(N2CC(Oc3ccc(CO)cc3)C2)c1-c1cccc(C#N)c1` [Compound 55], the inhibition at 50 µM is 10 to 30%. In the case of `O=C(O)c1cccc(-c2c(C(=O)O)cccc2N2CC(Oc3ccc(CO)cc3)C2)c1` [Compound 56] it was below 10%.

Take `COC(=O)c1cccc(N2CC(Oc3ccc(CO)cc3)C2)c1-c1ccc(Cl)cc1` [Compound 57]: the inhibition at 50 µM was 10 to 30%. In the case of `O=C(O)c1cccc(N2CC(Oc3ccc(CO)cc3)C2)c1-c1ccc(Cl)cc1` [Compound 58, 4′-chloro-6-(3-(4-(hydroxymethyl)phenoxy)azetidin-1-yl)-[1,1′-biphenyl]-2-formic acid] it was below 10%; in that of `COC(=O)c1cccc(N2CC(Oc3ccc(CO)cc3)C2)c1-c1cccc(C(F)(F)F)c1` [Compound 59, Methyl 3′-(trifluoromethyl)-6-(3-(4-(hydroxymethyl)phenoxy)azetidin-1-yl)-[1,1′-biphenyl]-2-formate], 10 to 30%; in that of `O=C(O)c1cccc(N2CC(Oc3ccc(CO)cc3)C2)c1-c1cccc(C(F)(F)F)c1` [Compound 60, 3′-(trifluoromethyl)-6-(3-(4-(hydroxymethyl)phenoxy)azetidin-1-yl)-[1,1′-biphenyl]-2-formic acid], below 10%.

In the case of `COC(=O)c1cccc(N2CC(Oc3ccc(CO)cc3)C2)c1-c1cc(F)cc(F)c1` [Compound 61, Methyl 3′,5′-difluoro-6-(3-(4-(hydroxymethyl)phenoxy)azetidin-1-yl)-[1,1′-biphenyl]-2-formate], the inhibition at 50 µM is 10 to 30%. As to `O=C(O)c1cccc(N2CC(Oc3ccc(CO)cc3)C2)c1-c1cc(F)cc(F)c1` [Compound 62, 3′,5′-difluoro-6-(3-(4-(hydroxymethyl)phenoxy)azetidin-1-yl)-[1,1′-biphenyl]-2-formic acid], the inhibition at 50 µM was below 10%. In the case of `COC(=O)c1cccc(N2CC(Oc3ccc(CO)cc3)C2)c1-c1ccc(-c2ccccc2)cc1` [Compound 63, Methyl 6-(3-(4-(hydroxymethyl)phenoxy)azetidin-1-yl)-[1,1′:4′,1″-terphenyl]-2-formate] it was 10 to 30%.

As for `O=C(O)c1cccc(N2CC(Oc3ccc(CO)cc3)C2)c1-c1ccc(-c2ccccc2)cc1` [Compound 64, 6-(3-(4-(hydroxymethyl)phenoxy)azetidin-1-yl)-[1,1′:4′,1″-terphenyl]-2-formic acid], the inhibition at 50 µM is above 50%. In the case of `COC(=O)c1cccc(N2CC(Oc3ccc(CO)cc3)C2)c1-c1cccc(NS(C)(=O)=O)c1` [Compound 65, Methyl 3′-(methylsulfonamido)-6-(3-(4-(hydroxymethyl)phenoxy)azetidin-1-yl)-[1,1′-biphenyl]-2-formate] it was 30 to 50%. In the case of `COC(=O)c1cccc(N2CC(Oc3ccc(CO)cc3)C2)c1-c1cccc(OC)c1` [Compound 66, Methyl 3′-methoxy-6-(3-(4-(hydroxymethyl)phenoxy)azetidin-1-yl)-[1,1′-biphenyl]-2-formate] it was 30 to 50%. `COc1cccc(-c2c(C(=O)O)cccc2N2CC(Oc3ccc(CO)cc3)C2)c1` [Compound 67, 3′-methoxy-6-(3-(4-(hydroxymethyl)phenoxy)azetidin-1-yl)-[1,1′-biphenyl]-2-formic acid]: the inhibition at 50 µM is below 10%. As to `COC(=O)c1cccc(N2CC(Oc3ccc(CO)cc3)C2)c1-c1ccc(F)c(C#N)c1` [Compound 68, Methyl 3′-cyano-4′-fluoro-6-(3-(4-(hydroxymethyl)phenoxy)azetidin-1-yl)-[1,1′-biphenyl]-2-formate], the inhibition at 50 µM lay within 10 to 30%.

As to `COC(=O)c1cccc(N2CC(Oc3ccc(CO)cc3)C2)c1-n1cccn1` [Compound 69, Methyl 3-(3-(4-(hydroxymethyl)phenoxy)azetidin-1-yl)-2-(1H-pyrazol-1-yl)benzoate], the inhibition at 50 µM was in the range of 10 to 30%. The figure for `O=C(O)c1cccc(N2CC(Oc3ccc(CO)cc3)C2)c1-n1cccn1` [Compound 70, 3-(3-(4-(hydroxymethyl)phenoxy)azetidin-1-yl)-2-(1H-pyrazol-1-yl)benzoic acid] is below 10%; for `O=C(O)c1cccc(OC2CN(c3cccc(C(=O)NCc4ccccc4)c3)C2)c1` [Compound 71, 3-((1-(3-(benzylcarbamoyl)phenyl)azetidin-3-yl)oxy)benzoic acid] it is below 10%.

With `Nc1c(C(=O)O)cccc1N1CC(Oc2cccc(C(=O)O)c2)C1` [Compound 72, 3-(3-(3-carboxylphenoxy)azetidin-1-yl)-2-aminobenzoic acid], the inhibition at 50 µM was below 10%. In the case of `O=C(O)c1cccc(OC2CN(c3cccc(C(=O)O)c3-n3cccc3)C2)c1` [Compound 73, 3-(3-(3-carboxylphenoxy)azetidin-1-yl)-2-(1H-pyrrol-1-yl)benzoic acid] it was below 10%; in that of `COC(=O)c1cccc(N2CC(Oc3ccc(COC(C)=O)cc3)C2)c1-n1cccc1` [Compound 74, Methyl 3-(3-(4-(acetoxylmethyl)phenoxy)azetidin-1-yl)-2-(1H-pyrrol-1-yl)benzoate], below 10%.
